Molecular target: T1, ΔF508-CFTR (Homo sapiens, UniProt P13569, DEL508-508)
T1 construct: Primary lung epithelial cells homozygous for the Cystic Fibrosis-causing ΔF508 mutation were differentiated; endogenous in cells; host or cells: primary human bronchial epithelial cells (hBE), ΔF508/ΔF508
Assay: hBE equivalent current (Ieq) assay, CFTR activity
Assay type: cell-based
Settings: relative to a CFTR amplifier at 3 μM, ΔF508 homozygous hBE, 24 h treatment; for Activity 3 μM: compound at 3 μM; for Activity 10 μM: compound at 10 μM
Experimental: Primary lung epithelial cells homozygous for the Cystic Fibrosis-causing ΔF508 mutation were differentiated for a minimum of 4 weeks in an air-liquid interface on Costar 24 well HTS filter plates prior to the equivalent current (Ieq) measurements. Cells were apically mucus-washed for 30 minutes 24 h prior to treatment with compounds. The basolateral media was removed and replaced with media containing the compound of interest diluted to its final concentration from DMSO stocks. Treated cells were incubated at 37° C. and 5% CO2 for 24 hours. At the end of the treatment period, the media was changed to the Ieq experimental solution for 2 hours before the experiment and plates are maintained in a CO2-free incubator during this period. The plates containing the cells were then placed in pre-warmed heating blocks at 36° C.±0.5 for 15 minutes before measurements are taken. The transepithelial voltage (VT) and conductance (GT) were measured using a custom 24 channel current clamp (TECC-24) with 24 well electrode manifold. The Ieq assay measurements were made following additions with standardized time periods:
1. The baseline VT and GT values were measured for approximately 20 minutes.
2. Benzamil was added to block ENaC for 15 minutes.
3. Forskolin plus VX-770 were added to maximally activate ΔF508-CFTR for 27 minutes.
4. Bumetanide was added to inhibit the NaK2Cl cotransporter and shut-off secretion of chloride.
The activity data captured was the area under the curve (AUC) for the traces of the equivalent chloride current. The AUC was collected from the time of the forskolin/VX-770 addition until the inhibition by bumetanide addition. Correction in response to compound treatment was scored as the increase in the AUC for compound-treated samples over that of vehicle-treated samples.
The results are shown below in Table 1. + indicates activity <150% of a CFTR amplifier with compound at concentration shown and amplifier at 3 μM; ++ indicates activity >150% of a CFTR amplifier with compound at concentration shown and amplifier at 3 μM.

T1 sequence (P13569 with tags, fused parts or gaps DEL508-508): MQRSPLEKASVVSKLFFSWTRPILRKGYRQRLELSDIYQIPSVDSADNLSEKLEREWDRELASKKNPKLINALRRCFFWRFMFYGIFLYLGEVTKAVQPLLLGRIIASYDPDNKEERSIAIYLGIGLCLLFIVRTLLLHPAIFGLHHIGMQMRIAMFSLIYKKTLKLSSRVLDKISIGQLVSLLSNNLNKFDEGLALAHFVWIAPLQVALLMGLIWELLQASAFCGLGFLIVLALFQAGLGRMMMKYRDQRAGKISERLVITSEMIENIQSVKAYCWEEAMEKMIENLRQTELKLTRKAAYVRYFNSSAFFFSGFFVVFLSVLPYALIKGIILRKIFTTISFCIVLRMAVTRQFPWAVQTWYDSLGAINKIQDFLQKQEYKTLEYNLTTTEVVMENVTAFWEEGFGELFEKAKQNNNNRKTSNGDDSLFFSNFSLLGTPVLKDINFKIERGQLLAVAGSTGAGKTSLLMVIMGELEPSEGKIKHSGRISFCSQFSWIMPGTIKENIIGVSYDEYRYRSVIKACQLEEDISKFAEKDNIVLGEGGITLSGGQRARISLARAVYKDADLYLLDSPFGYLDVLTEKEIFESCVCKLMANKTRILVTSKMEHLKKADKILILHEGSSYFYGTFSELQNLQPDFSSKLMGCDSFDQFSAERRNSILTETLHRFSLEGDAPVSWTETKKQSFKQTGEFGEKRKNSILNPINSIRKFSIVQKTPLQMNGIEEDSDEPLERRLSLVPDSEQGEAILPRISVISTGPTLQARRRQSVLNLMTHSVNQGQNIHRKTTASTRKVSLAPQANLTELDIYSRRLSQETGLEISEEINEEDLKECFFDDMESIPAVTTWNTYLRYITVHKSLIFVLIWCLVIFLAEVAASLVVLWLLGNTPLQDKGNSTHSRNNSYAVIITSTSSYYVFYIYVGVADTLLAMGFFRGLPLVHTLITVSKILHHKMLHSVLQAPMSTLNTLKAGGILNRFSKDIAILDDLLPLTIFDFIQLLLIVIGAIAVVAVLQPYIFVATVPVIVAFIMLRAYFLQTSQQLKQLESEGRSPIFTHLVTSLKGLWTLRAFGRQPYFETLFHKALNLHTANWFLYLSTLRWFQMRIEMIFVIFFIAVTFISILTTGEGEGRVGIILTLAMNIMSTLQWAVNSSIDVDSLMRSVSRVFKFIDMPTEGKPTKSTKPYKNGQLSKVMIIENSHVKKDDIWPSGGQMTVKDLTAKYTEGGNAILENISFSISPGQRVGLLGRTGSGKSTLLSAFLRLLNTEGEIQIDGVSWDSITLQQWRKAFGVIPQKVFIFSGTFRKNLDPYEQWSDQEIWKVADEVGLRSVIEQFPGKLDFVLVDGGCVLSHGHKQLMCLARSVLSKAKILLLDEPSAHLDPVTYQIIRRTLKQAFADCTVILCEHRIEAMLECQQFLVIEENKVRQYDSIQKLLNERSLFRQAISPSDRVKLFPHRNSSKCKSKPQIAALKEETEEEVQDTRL

Row | SMILES | Activity 3 μM | Activity 10 μM
1 | COc1cccc(-c2ccc(=O)n(C(C)C(=O)Nc3cccc(C(F)(F)F)c3)n2)c1 (stereo not shown) [Compound 7, 2-[3-(3-Methoxyphenyl)-6-oxo-1,6-dihydropyridazin-1-yl]-N-[3-(trifluoromethyl)phenyl]propanamide] | + (activity <150% of a CFTR amplifier with compound at concentration shown and amplifier at 3 μM) | + (activity <150% of a CFTR amplifier with compound at concentration shown and amplifier at 3 μM)
2 | COc1cccc(-c2ccc(=O)n(C(C)C(=O)Nc3ccccc3C(C)(C)C)n2)c1 (stereo not shown) [Compound 9, N-(2-tert-Butylphenyl)-2-[3-(3-methoxyphenyl)-6-oxo-1,6-dihydropyridazin-1-yl]propanamide] | + (activity <150% of a CFTR amplifier with compound at concentration shown and amplifier at 3 μM) | + (activity <150% of a CFTR amplifier with compound at concentration shown and amplifier at 3 μM)
3 | CC(C(=O)Nc1ccc(C(F)(F)F)cc1)n1nc(-c2cccc(OCc3ccccc3)c2)ccc1=O (stereo not shown) [Compound 50, 2-[3-[3-(Benzyloxy)phenyl]-6-oxo-1,6-dihydropyridazin-1-yl]-N-[4-(trifluoromethyl)phenyl]propanamide] | ++ (activity >150% of a CFTR amplifier with compound at concentration shown and amplifier at 3 μM) | ++ (activity >150% of a CFTR amplifier with compound at concentration shown and amplifier at 3 μM)
4 | COc1cccc(-c2ccc(=O)n(C(C)C(=O)Nc3cccc(C#N)c3)n2)c1 (stereo not shown) [Compound 45, N-(3-Cyanophenyl)-2-(3-(3-methoxyphenyl)-6-oxopyridazin-1(6H)-yl)propanamide] | + (activity <150% of a CFTR amplifier with compound at concentration shown and amplifier at 3 μM) | + (activity <150% of a CFTR amplifier with compound at concentration shown and amplifier at 3 μM)
5 | COc1cccc(-c2ccc(=O)n(C(C)C(=O)Nc3cccc(C(C)(C)C)c3)n2)c1 (stereo not shown) [Compound 10, N-(3-tert-Butylphenyl)-2-[3-(3-methoxyphenyl)-6-oxo-1,6-dihydropyridazin-1-yl]propanamide] |  | ++ (activity >150% of a CFTR amplifier with compound at concentration shown and amplifier at 3 μM)
6 | CC(C(=O)Nc1ccc(C(F)(F)F)cc1)n1nc(-c2ccccc2C(F)(F)F)ccc1=O (stereo not shown) [Compound 32, 2-[6-Oxo-3-[2-(trifluoromethyl)phenyl]-1,6-dihydropyridazin-1-yl]-N-[4-(trifluoromethyl)phenyl]propanamide] | + (activity <150% of a CFTR amplifier with compound at concentration shown and amplifier at 3 μM) | + (activity <150% of a CFTR amplifier with compound at concentration shown and amplifier at 3 μM)
7 | COc1ccc(F)c(-c2ccc(=O)n(C(C)C(=O)Nc3ccc(C(F)(F)F)cc3)n2)c1 (stereo not shown) [Compound 52, 2-[3-(2-Fluoro-5-methoxyphenyl)-6-oxo-1,6-dihydropyridazin-1-yl]-N-[4-(trifluoromethyl)phenyl]propanamide] | ++ (activity >150% of a CFTR amplifier with compound at concentration shown and amplifier at 3 μM) | ++ (activity >150% of a CFTR amplifier with compound at concentration shown and amplifier at 3 μM)
8 | COc1cccc(-c2ccc(=O)n(C(C)(C)C(=O)Nc3cc(F)cc(F)c3)n2)c1 [Compound 18, N-(3,5-Difluorophenyl)-2-(3-(3-methoxyphenyl)-6-oxopyridazin-1(6H)-yl)-2-methylpropanamide] | + (activity <150% of a CFTR amplifier with compound at concentration shown and amplifier at 3 μM) | + (activity <150% of a CFTR amplifier with compound at concentration shown and amplifier at 3 μM)
9 | CCOc1cccc(-c2ccc(=O)n(C(C)C(=O)Nc3ccc(C(F)(F)F)cc3)n2)c1 (stereo not shown) [Compound 48, 2-[3-(3-Ethoxyphenyl)-6-oxo-1,6-dihydropyridazin-1-yl]-N-[4-(trifluoromethyl)phenyl]propanamide] | ++ (activity >150% of a CFTR amplifier with compound at concentration shown and amplifier at 3 μM) | ++ (activity >150% of a CFTR amplifier with compound at concentration shown and amplifier at 3 μM)
10 | COc1cccc(-c2cc(-c3ccccc3)c(=O)n(C(C)C(=O)Nc3cc(F)cc(F)c3)n2)c1 (stereo not shown) [Compound 25, N-(3,5-Difluorophenyl)-2-(3-(3-methoxyphenyl)-6-oxo-5-phenylpyridazin-1(6H)-yl)propanamide] |  | + (activity <150% of a CFTR amplifier with compound at concentration shown and amplifier at 3 μM)
11 | CC(C(=O)Nc1ccc(C(F)(F)F)cc1)n1nc(-c2cccc(Oc3ccccc3)c2)ccc1=O (stereo not shown) [Compound 51, 2-[3-[3-(Phenoxy)phenyl]-6-oxo-1,6-dihydropyridazin-1-yl]-N-[4-(trifluoromethyl)phenyl]propanamide] | ++ (activity >150% of a CFTR amplifier with compound at concentration shown and amplifier at 3 μM) | ++ (activity >150% of a CFTR amplifier with compound at concentration shown and amplifier at 3 μM)
12 | Cc1ccc(-c2ccc(=O)n(C(C)C(=O)Nc3cc(F)cc(F)c3)n2)cc1O (stereo not shown) [Compound 19, N-(3,5-Difluorophenyl)-2-[3-(3-hydroxy-4-methylphenyl)-6-oxo-1,6-dihydropyridazin-1-yl]propanamide] |  | + (activity <150% of a CFTR amplifier with compound at concentration shown and amplifier at 3 μM)
13 | COc1cccc(-c2ccc(=O)n(C(C)C(=O)Nc3ccc(C(C)(C)C)cc3)n2)c1 (stereo not shown) [Compound 11, N-(4-tert-Butylphenyl)-2-[3-(3-methoxyphenyl)-6-oxo-1,6-dihydropyridazin-1-yl]propanamide] |  | + (activity <150% of a CFTR amplifier with compound at concentration shown and amplifier at 3 μM)
14 | COc1cccc(-c2ccc(=O)n(C(C)C(=O)Nc3cc(O)c(C(C)(C)C)cc3C(C)(C)C)n2)c1 (stereo not shown) [Compound 26, N-(2,4-Di-tert-butyl-5-hydroxyphenyl)-2-[3-(3-methoxyphenyl)-6-oxo-1,6-dihydropyridazin-1-yl]propanamide] | + (activity <150% of a CFTR amplifier with compound at concentration shown and amplifier at 3 μM) | + (activity <150% of a CFTR amplifier with compound at concentration shown and amplifier at 3 μM)
15 | COc1cccc(-c2ccc(=O)n(C(Cc3ccccc3)C(=O)Nc3ccc(C(F)(F)F)cc3)n2)c1 (stereo not shown) [Compound 53, 2-(3-(3-Methoxyphenyl)-6-oxopyridazin-1(6H)-yl)-3-phenyl-N-(4-(trifluoromethyl)phenyl)propanamide] |  | + (activity <150% of a CFTR amplifier with compound at concentration shown and amplifier at 3 μM)
16 | CC(C)Oc1cccc(-c2ccc(=O)n(C(C)C(=O)Nc3ccc(C(F)(F)F)cc3)n2)c1 (stereo not shown) [Compound 49, 2-[6-Oxo-3-[3-(propan-2-yloxy)phenyl]-1,6-dihydropyridazin-1-yl]-N-[4-(trifluoromethyl)phenyl]propanamide] | ++ (activity >150% of a CFTR amplifier with compound at concentration shown and amplifier at 3 μM) | ++ (activity >150% of a CFTR amplifier with compound at concentration shown and amplifier at 3 μM)
17 | COc1cccc(NC(=O)C(C)n2nc(-c3cccc(OC)c3)ccc2=O)c1 (stereo not shown) [Compound 6, N-(3-Methoxyphenyl)-2-[3-(3-methoxyphenyl)-6-oxo-1,6-dihydropyridazin-1-yl]propanamide] | + (activity <150% of a CFTR amplifier with compound at concentration shown and amplifier at 3 μM) | + (activity <150% of a CFTR amplifier with compound at concentration shown and amplifier at 3 μM)
18 | COc1cccc(-c2ccc(=O)n(C(C(=O)Nc3ccc(C(F)(F)F)cc3)c3ccccc3)n2)c1 (stereo not shown) [Compound 40, 2-(3-(3-Methoxyphenyl)-6-oxopyridazin-1(6H)-yl)-2-phenyl-N-(4-(trifluoromethyl)phenyl)acetamide] | ++ (activity >150% of a CFTR amplifier with compound at concentration shown and amplifier at 3 μM) | + (activity <150% of a CFTR amplifier with compound at concentration shown and amplifier at 3 μM)

— US20190256474A1, “N-PHENYL-2-(3-PHENYL-6-OXO-1,6-DIHYDROPYRIDAZIN-1-YL)ACETAMIDE DERIVATIVES FOR TREATING CYSTIC FIBROSIS” (Proteostasis Therapeutics, Inc., priority 2016, published 2019)
